Experimental data as given in US20100204161A1, “Substances and Pharmaceutical Compositions for the Inhibition of Glyoxalases and Their Use Against Bacteria” (BIOMAC PRIVATINSTITUT FUR MEDIZINISHE UND ZAHMEDIZ …, priority 2005, published 2010).

How the values were obtained:
[1] = tested on: biofilms (biofilm-forming microorganisms from pipe water); experiment: Destruction of biofilms on contaminated silicone surfaces (colony forming units); assay type: cell-based; conditions: normalized to 1 cm2 inner tube surface
Procedure: Biofilms were allowed to generate in a silicon tube system according to Gebel et al. (2005). In short, pipe water from a public water distributor was used as the source of biofilm-forming microorganisms. Water flow was at about 20 l per hour through silicon tubes from two commercial suppliers with inner diameters of 4 mm for 30 days at 25° C. After that the tubes were emptied, sealed at both ends and treated on their outer surface with 0.2% peroxoacetic acid for 1 hour. Tubes were then rinsed with sterile water and afterwards cut into pieces of 5 cm length each using a sterile scalpel. Pieces obtained this way were then dipped into solutions which contained the substance to be tested or respective controls. 25 ml of the test solutions were used in closed Falcon tubes (50 ml). […] Tubes were opened over their full length with scissors and the material deposited at the original inner surfaces of the tubes homogenized in 10 ml of saline (9 g NaCl/l water). Dilutions were made (decimal steps to 10^4) and 0.1 ml of these solutions plated onto test agar plates (1 l contained 0.5 g yeast extract, 0.5 g peptone, 0.5 g casein hydrolysate, 0.5 g starch. 0.3 g potassium hydrogen phosphate, 24 mg magnesium sulphate, 0.3 g sodium pyruvate, 15 g agar). Plates were incubated for seven days at 20° C. Colonies which formed were counted on each plate independent of their appearance and color. […] Two dilutions must be consistent in colony numbers, taken into consideration the respective dilution factors. Numbers were normalized to 1 cm2 of the inner tube surface. Each substance was analysed in duplicates. Biofilms were treated with water (control), ethyl pyruvate […] Numbers are given for each of the different silicon tubes used.

[2] = molecular target: T1, yeast glyoxalase I (Saccharomyces cerevisiae, UniProt P50107); experiment: Enzymatic activity of yeast glyoxalase I (formation of S-D-lactoyl-glutathione, 240 nm); assay type: biochemical; conditions: for Influence on the enzymatic activity of yeast glyoxalase I: increasing concentrations (0-30 mM in Example 5), FIG. 1-3
T1 construct: purchased Sigma G-4252
T1 sequence (P50107 1-326): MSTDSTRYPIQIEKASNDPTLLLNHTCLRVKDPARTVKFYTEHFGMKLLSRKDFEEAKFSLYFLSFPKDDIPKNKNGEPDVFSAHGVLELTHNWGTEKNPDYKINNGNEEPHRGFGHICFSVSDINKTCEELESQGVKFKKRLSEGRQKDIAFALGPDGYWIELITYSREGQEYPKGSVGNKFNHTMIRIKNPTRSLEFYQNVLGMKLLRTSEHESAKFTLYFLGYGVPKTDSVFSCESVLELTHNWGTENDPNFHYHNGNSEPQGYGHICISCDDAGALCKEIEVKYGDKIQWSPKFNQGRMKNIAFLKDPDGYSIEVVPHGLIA
Procedure: Measuring glyoxalase I (E.C.4.4.1.5, lactoyl-glutathione lyase Sigma, G-4252) was performed according to the instructions of McLellan and Thornalley (1989). The principle is based on measuring the initial rate of formation of S-D-lactoyl-glutathione from methylglyoxal (Sigma, MO252, 40%) and reduced L-glutathione (Aldrich, G-4251, >99%). The formation of the product is observed using the extinction coefficient e=2.86 mM-1 cm-1 at 240 nm. The measurement was performed in 50 mM sodium phosphate buffer, pH 7.0. For that purpose 2 mM methylglyoxal and 2 mM reduced glutathione were incubated for 2 minutes at 30° C. for the formation of the hemithioacetal. Thereafter 20 μl of a 1 to 1000 dilution of the glyoxalase I (Sigma, G-4252) was added to 1 ml of the measuring reagent to start the reaction.
Glyoxalase activity (IU) corresponds to the amount of enzyme forming 1 μmol of S-D-lactoyl-glutathione/min.
Determination of glyoxalase I activity was performed according to the general protocol as described above. The influence of ethyl pyruvate on enzyme activity was investigated by addition of increasing concentrations of EP (Sigma; no. E4, 780-8; lot. S18972-513) to the measuring reagent.
Determination of glyoxalase I activity was performed according to the general protocol as described above. The influence of compounds of the general formula (I), (II), and (III) on the activity of the enzyme was investigated by addition of increasing concentrations of these compounds to the preparation. The IC50-values were calculated from inhibition curves of each compound.
Determination of glyoxalase I activity was performed according to the general protocol as described above. The influence of 2-oxopropanethioic acid S-ethyl ester on the activity of the enzyme was investigated by addition of increasing concentrations of SE to the preparation for the measurement.
Determination of glyoxalase I activity was performed according to the general protocol as described above. The influence of effectors on the enzymatic activity was investigated by addition of increasing concentrations (0-30 mM) of EP (Sigma; no. E4, 780-8; lot. S18972-513) (triangle), BP (prepared according to the instructions of patent JP 11080089; 98%) (circle) and BL (Fluka, 69819; lot. 443090/1 21503090) (squares) to the measuring reagent (FIG. 3).

[3] = tested on: primary human skin fibroblasts; experiment: Vitality of primary human fibroblasts (dye exclusion count); assay type: cell-based; conditions: 1-50 mM, serum free medium, 24 hours; FIG. 7
Procedure: An identical number (10^4 cells per well) of primary human skin fibroblasts were inoculated in 24-well plates (Greiner, no. 662160) and were cultured in DMEM (Gibco; no. 41966-092) in the presence of 10% calf serum (Biochrom, S0113/5), 2 mM L-glutamine (Gibco; no. 25030-024), penicillin/streptomycin (100 units penicillin/ml; 100 μg streptomycin/ml, Gibco; no. 15140/122), 5 mg % ascorbic acid (Serva, no. 14030.02) at 37° C., 5% CO2 and 95% humidity. The primary human fibroblasts were prepared according to the instructions of Birkenmeier et al. (1998). After reaching 50% confluency the medium was by fresh serum free medium. Thereafter the following supplements were added to the cells: preparation 1 (equivalent volume of serum free (SF) medium, blank); preparation 2 (1 mM DEL or 1 mM LEL or 1 mM EP); preparation 3 (5 mM DEL or 5 mM LEL or 5 mM EP), preparation 4 (10 mM DEL or 10 mM LEL or 10 mM EP), preparation 5 (20 mM DEL or 20 mM LEL or 20 mM EP), preparation 6 (50 mM DEL or 50 mM LEL or 50 mM EP). The culture was continued at 37° C., 5% CO2 and 95% humidity for 24 hours. Thereafter the supernatants were removed and 100 μl of a 50% […] solution was added to the wells. After washing the cells with medium the unstained and stained cells were counted under the light optical microscope comprising a coordinate plane. Cells stained blue were assessed as avital, unstained cells as vital. The percentage of unstained cells of the total number of cells corresponds to the vitality of the cells.

[4] = tested on: NAD-dependent lactate dehydrogenases; experiment: Interconversion by NAD-dependent lactate dehydrogenases; assay type: in vitro ADME; conditions: inventors' own measurements

CCOC(C)=O [Ester control, ethyl acetate, reference compound]
Colony forming units derivable from biofilms after treatment ([1]; 25 mM, 30 min, first silicon tube): 5.1 × 10^5 colony forming units | Colony forming units derivable from biofilms after treatment ([1]; 25 mM, 30 min, second silicon tube): 6.5 × 10^5 colony forming units | Colony forming units derivable from biofilms after treatment ([1]; 25 mM, 120 min, first silicon tube): 7.0 × 10^4 colony forming units | Colony forming units derivable from biofilms after treatment ([1]; 25 mM, 120 min, second silicon tube): 1.1 × 10^5 colony forming units

CCCCOC(=O)C(C)=O [Butyl pyruvate]
Effect on yeast glyoxalase I compared with EP ([2]; 0-30 mM, FIG. 3): the effect of BP is stronger than the effect of EP | Influence on the enzymatic activity of yeast glyoxalase I [2]: inhibit the activity of glyoxalase I in a concentration dependent manner

CCCCOC(=O)[C@H](C)O [(−)-Butyl L-Lactate]
Influence on the enzymatic activity of yeast glyoxalase I [2]: does not influence the reaction of glyoxalase

CC(=O)OO [Peroxo acetic acid, peroxoacetic acid, reference compound]
Colony forming units derivable from biofilms after treatment ([1]; 0.1%, 30 min, first silicon tube): 8.2 × 10^3 colony forming units | Colony forming units derivable from biofilms after treatment ([1]; 0.1%, 30 min, second silicon tube): 9.3 × 10^3 colony forming units | Colony forming units derivable from biofilms after treatment ([1]; 0.1%, 120 min, first silicon tube): 3.1 × 10^3 colony forming units | Colony forming units derivable from biofilms after treatment ([1]; 0.1%, 120 min, second silicon tube): 4.7 × 10^3 colony forming units

CCOC(=O)[C@@H](C)O [(+)-Ethyl D-Lactate]
Effect on the vitality of primary human fibroblasts [3]: not toxic over the concentration range investigated

CCOC(=O)[C@H](C)O [(−)-Ethyl L-Lactate]
Effect on the vitality of primary human fibroblasts [3]: not toxic over the concentration range investigated

CCSC(=O)C(C)=O [SE, 2-Oxopropanethioic acid S-ethyl ester]
Influence on the enzymatic activity of yeast glyoxalase I [2]: inhibits the reaction of the glyoxalase I of yeast in a concentration dependent manner

CCCCOC(=O)C(C)O (stereo not drawn) [Butyl lactate]
Transformation by NAD-dependent lactate dehydrogenases [4]: to a lesser degree than ethyl lactate, also be transformed
